Measurements published in patent US4442044A, “Process for preparing monoesters and diesters of N-alkyl substituted amino methyl phosphonic acid” (priority 1983, dated 1984).

Columns and labels:
Type in all cases: in vivo
Barnyardgrass [1] = assay: post-emergent herbicidal activity, greenhouse; conditions: 4 WAT
Summary of the method: (§1)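 Post-emergence foliar spray at tabulated application rates, using aliquots of a 1.0% stock in acetone, THF or water plus ~0.4% emulsifier, applied to 2–3-week-old greenhouse plants. Plant injury was rated relative to controls roughly two and four weeks after treatment.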

Cocklebur [2] = assay: post-emergent herbicidal activity, greenhouse; conditions: 4 WAT
Summary of the method: as §1

Downy Brome [3] = assay: post-emergent herbicidal activity, greenhouse; conditions: 4 WAT
Summary of the method: as §1

Hemp Sesbania = assay: post-emergent herbicidal activity, greenhouse; conditions: Table II, 4 WAT
Summary of the method: as §1

Johnsongrass [4] = assay: post-emergent herbicidal activity, greenhouse; conditions: Table I, 4 WAT
Summary of the method: as §1

Lambsquarters [5] = assay: post-emergent herbicidal activity, greenhouse; conditions: 4 WAT
Summary of the method: as §1

Morningglory [6] = assay: post-emergent herbicidal activity, greenhouse; conditions: 4 WAT
Summary of the method: as §1

Panicum Spp = assay: post-emergent herbicidal activity, greenhouse; conditions: Table II, 4 WAT
Summary of the method: as §1

Quackgrass [7] = assay: post-emergent herbicidal activity, greenhouse; conditions: Table I, 4 WAT
Summary of the method: as §1

Rice = assay: post-emergent herbicidal activity, greenhouse; conditions: Table II, 4 WAT
Summary of the method: as §1

Smartweed [8] = assay: post-emergent herbicidal activity, greenhouse; conditions: 4 WAT
Summary of the method: as §1

Sorghum = assay: post-emergent herbicidal activity, greenhouse; conditions: Table II, 4 WAT
Summary of the method: as §1

Soybean = assay: post-emergent herbicidal activity, greenhouse; conditions: Table II, 4 WAT
Summary of the method: as §1

Sugar Beet = assay: post-emergent herbicidal activity, greenhouse; conditions: Table II, 4 WAT
Summary of the method: as §1

Velvetleaf [9] = assay: post-emergent herbicidal activity, greenhouse; conditions: 4 WAT
Summary of the method: as §1

Wheat = assay: post-emergent herbicidal activity, greenhouse; conditions: Table II, 4 WAT
Summary of the method: as §1

Wild Buckwheat = assay: post-emergent herbicidal activity, greenhouse; conditions: Table II, 4 WAT
Summary of the method: as §1

Yellow Nutsedge [10] = assay: post-emergent herbicidal activity, greenhouse; conditions: Table I, 4 WAT
Summary of the method: as §1

Barnyardgrass [11] = assay: pre-emergent herbicidal activity, soil incorporation; conditions: Table III, 2 WAT, 11.2 kg/h
From the text: (§2) A good grade of top soil is placed in aluminum pans and compacted to a depth of 0.95 to 1.27 cm. from the top of each pan. A predetermined number of seeds or vegetative propagules of each of several plant species are placed on top of the soil in each pan and then pressed down. Herbicidal compositions prepared as in the previous example are applied by admixture with or incorporation in the top layer of soil.
(§3) In this method, the soil required to cover the seeds and propagules is weighed and admixed with a herbicidal composition containing a known amount of the active ingredient (compound of this invention). The pans are then filled with the admixture and leveled. Watering is carried out by permitting the soil in the pans to absorb moisture through apertures in the pan bottoms. The seed and propagule containing pans are placed on a wet sand bench and maintained for approximately two weeks under ordinary conditions of sunlight and watering. At the end of this period, the number of emerged plants of each species is noted and compared to an untreated control.
(§4) The pre-emergent herbicidal activity index used below is based upon average percent control of each species as follows: […]

Cocklebur [12] = assay: as above; conditions: Table III, 2 WAT, 11.2 kg/h
From the text: as §2, §3, §4

Downy Brome [13] = assay: as above; conditions: Table III, 2 WAT, 11.2 kg/h
From the text: as §2, §3, §4

Johnsongrass [14] = assay: as above; conditions: Table III, 2 WAT, 11.2 kg/h
From the text: as §2, §3, §4

Lambsquarters [15] = assay: as above; conditions: Table III, 2 WAT, 11.2 kg/h
From the text: as §2, §3, §4

Morningglory [16] = assay: as above; conditions: Table III, 2 WAT, 11.2 kg/h
From the text: as §2, §3, §4

Quackgrass [17] = assay: as above; conditions: Table III, 2 WAT, 11.2 kg/h
From the text: as §2, §3, §4

Smartweed [18] = assay: as above; conditions: Table III, 2 WAT, 11.2 kg/h
From the text: as §2, §3, §4

Velvetleaf [19] = assay: as above; conditions: Table III, 2 WAT, 11.2 kg/h
From the text: as §2, §3, §4

Yellow Nutsedge [20] = assay: as above; conditions: Table III, 2 WAT, 11.2 kg/h
From the text: as §2, §3, §4

SMILES: CCOCCOC(=O)CNCP(=O)(O)OC(C)C#N (stereo not drawn) [Example 9, glycine, N-[[(1-cyanoethoxy)hydroxyphosphinyl]-methyl],2-ethoxyethyl ester]
- post-emergent herbicidal activity index (Barnyardgrass [1]; Table I, 5.6 kg/h): 3 (75-99% control)
- post-emergent herbicidal activity index (Barnyardgrass [1]; Table I, 11.2 kg/h): 3 (75-99% control)
- post-emergent herbicidal activity index (Barnyardgrass [1]; Table II, 0.28 kg/h): 2 (50-74% control)
- post-emergent herbicidal activity index (Barnyardgrass [1]; Table II, 1.12 kg/h): 3 (75-99% control)
- post-emergent herbicidal activity index (Barnyardgrass [1]; Table II, 5.6 kg/h): 3 (75-99% control)
- post-emergent herbicidal activity index (Cocklebur [2]; Table I, 5.6 kg/h): 3 (75-99% control)
- post-emergent herbicidal activity index (Cocklebur [2]; Table I, 11.2 kg/h): 4 (100% control)
- post-emergent herbicidal activity index (Cocklebur [2]; Table II, 0.28 kg/h): 1 (25-49% control)
- post-emergent herbicidal activity index (Cocklebur [2]; Table II, 1.12 kg/h): 1 (25-49% control)
- post-emergent herbicidal activity index (Cocklebur [2]; Table II, 5.6 kg/h): 4 (100% control)
- post-emergent herbicidal activity index (Downy Brome [3]; Table I, 5.6 kg/h): 2 (50-74% control)
- post-emergent herbicidal activity index (Downy Brome [3]; Table I, 11.2 kg/h): 3 (75-99% control)
- post-emergent herbicidal activity index (Downy Brome [3]; Table II, 0.28 kg/h): 2 (50-74% control)
- post-emergent herbicidal activity index (Downy Brome [3]; Table II, 1.12 kg/h): 1 (25-49% control)
- post-emergent herbicidal activity index (Downy Brome [3]; Table II, 5.6 kg/h): 4 (100% control)
- post-emergent herbicidal activity index (Hemp Sesbania; 0.28 kg/h): 1 (25-49% control)
- post-emergent herbicidal activity index (Hemp Sesbania; 1.12 kg/h): 1 (25-49% control)
- post-emergent herbicidal activity index (Hemp Sesbania; 5.6 kg/h): 1 (25-49% control)
- post-emergent herbicidal activity index (Johnsongrass [4]; 5.6 kg/h): 4 (100% control)
- post-emergent herbicidal activity index (Johnsongrass [4]; 11.2 kg/h): 4 (100% control)
- post-emergent herbicidal activity index (Lambsquarters [5]; Table I, 5.6 kg/h): 4 (100% control)
- post-emergent herbicidal activity index (Lambsquarters [5]; Table I, 11.2 kg/h): 4 (100% control)
- post-emergent herbicidal activity index (Lambsquarters [5]; Table II, 0.28 kg/h): 4 (100% control)
- post-emergent herbicidal activity index (Lambsquarters [5]; Table II, 1.12 kg/h): 4 (100% control)
- post-emergent herbicidal activity index (Lambsquarters [5]; Table II, 5.6 kg/h): 4 (100% control)
- post-emergent herbicidal activity index (Morningglory [6]; Table I, 5.6 kg/h): 2 (50-74% control)
- post-emergent herbicidal activity index (Morningglory [6]; Table I, 11.2 kg/h): 3 (75-99% control)
- post-emergent herbicidal activity index (Morningglory [6]; Table II, 0.28 kg/h): 2 (50-74% control)
- post-emergent herbicidal activity index (Morningglory [6]; Table II, 1.12 kg/h): 2 (50-74% control)
- post-emergent herbicidal activity index (Morningglory [6]; Table II, 5.6 kg/h): 2 (50-74% control)
- post-emergent herbicidal activity index (Panicum Spp; 0.28 kg/h): 4 (100% control)
- post-emergent herbicidal activity index (Panicum Spp; 1.12 kg/h): 4 (100% control)
- post-emergent herbicidal activity index (Panicum Spp; 5.6 kg/h): 4 (100% control)
- post-emergent herbicidal activity index (Quackgrass [7]; 5.6 kg/h): 4 (100% control)
- post-emergent herbicidal activity index (Quackgrass [7]; 11.2 kg/h): 4 (100% control)
- post-emergent herbicidal activity index (Rice; 0.28 kg/h): 1 (25-49% control)
- post-emergent herbicidal activity index (Rice; 1.12 kg/h): 2 (50-74% control)
- post-emergent herbicidal activity index (Rice; 5.6 kg/h): 3 (75-99% control)
- post-emergent herbicidal activity index (Smartweed [8]; Table I, 5.6 kg/h): 2 (50-74% control)
- post-emergent herbicidal activity index (Smartweed [8]; Table I, 11.2 kg/h): 3 (75-99% control)
- post-emergent herbicidal activity index (Smartweed [8]; Table II, 0.28 kg/h): 2 (50-74% control)
- post-emergent herbicidal activity index (Smartweed [8]; Table II, 1.12 kg/h): 2 (50-74% control)
- post-emergent herbicidal activity index (Smartweed [8]; Table II, 5.6 kg/h): 1 (25-49% control)
- post-emergent herbicidal activity index (Sorghum; 0.28 kg/h): 2 (50-74% control)
- post-emergent herbicidal activity index (Sorghum; 1.12 kg/h): 1 (25-49% control)
- post-emergent herbicidal activity index (Sorghum; 5.6 kg/h): 3 (75-99% control)
- post-emergent herbicidal activity index (Soybean; 0.28 kg/h): 1 (25-49% control)
- post-emergent herbicidal activity index (Soybean; 1.12 kg/h): 3 (75-99% control)
- post-emergent herbicidal activity index (Soybean; 5.6 kg/h): 4 (100% control)
- post-emergent herbicidal activity index (Sugar Beet; 0.28 kg/h): 3 (75-99% control)
- post-emergent herbicidal activity index (Sugar Beet; 1.12 kg/h): 2 (50-74% control)
- post-emergent herbicidal activity index (Sugar Beet; 5.6 kg/h): 4 (100% control)
- post-emergent herbicidal activity index (Velvetleaf [9]; Table I, 5.6 kg/h): 3 (75-99% control)
- post-emergent herbicidal activity index (Velvetleaf [9]; Table I, 11.2 kg/h): 4 (100% control)
- post-emergent herbicidal activity index (Velvetleaf [9]; Table II, 0.28 kg/h): 1 (25-49% control)
- post-emergent herbicidal activity index (Velvetleaf [9]; Table II, 1.12 kg/h): 3 (75-99% control)
- post-emergent herbicidal activity index (Velvetleaf [9]; Table II, 5.6 kg/h): 3 (75-99% control)
- post-emergent herbicidal activity index (Wheat; 0.28 kg/h): 2 (50-74% control)
- post-emergent herbicidal activity index (Wheat; 1.12 kg/h): 3 (75-99% control)
- post-emergent herbicidal activity index (Wheat; 5.6 kg/h): 3 (75-99% control)
- post-emergent herbicidal activity index (Wild Buckwheat; 0.28 kg/h): 1 (25-49% control)
- post-emergent herbicidal activity index (Wild Buckwheat; 1.12 kg/h): 0 (0-24% control)
- post-emergent herbicidal activity index (Wild Buckwheat; 5.6 kg/h): 3 (75-99% control)
- post-emergent herbicidal activity index (Yellow Nutsedge [10]; 5.6 kg/h): 1 (25-49% control)
- post-emergent herbicidal activity index (Yellow Nutsedge [10]; 11.2 kg/h): 3 (75-99% control)
- pre-emergent herbicidal activity index (Barnyardgrass [11]): 0 (1-24% control)
- pre-emergent herbicidal activity index (Cocklebur [12]): 0 (1-24% control)
- pre-emergent herbicidal activity index (Downy Brome [13]): 0 (1-24% control)
- pre-emergent herbicidal activity index (Johnsongrass [14]): 0 (1-24% control)
- pre-emergent herbicidal activity index (Lambsquarters [15]): 0 (1-24% control)
- pre-emergent herbicidal activity index (Morningglory [16]): 0 (1-24% control)
- pre-emergent herbicidal activity index (Quackgrass [17]): 0 (1-24% control)
- pre-emergent herbicidal activity index (Smartweed [18]): 0 (1-24% control)
- pre-emergent herbicidal activity index (Velvetleaf [19]): 0 (1-24% control)
- pre-emergent herbicidal activity index (Yellow Nutsedge [20]): 1 (25-49% control)
